Patent US11162129B2, “Photoprotective mixtures as imaging reagents in sequencing-by-synthesis” (IsoPlexis Corporation, priority 2016, dated 2021)

From the text: Components in various photoprotective imaging mixtures as described herein have been tested for solubility and stability against precipitation and discoloration in imaging solution formulation using […] as the base buffer.

optimal concentration window in imaging solution formulation | Structure (SMILES)
5 to 15 mM | Cc1c(C)c2c(c(C)c1O)CCC(C)(C(=O)O)O2 (stereo not drawn) [Trolox, 6-hydroxy-2,5,7,8-tetramethylchromane-2-carboxylic acid]
10 to 20 mM | CCOC(=O)c1ccc(O)c(O)c1 [3,4-Dihydroxybenzoic Acid Ethyl Ester, 3,4-dihydroxybenzoic acid ethyl ester]
5 to 50 mM | C[N+](C)(C)CC(O)CC(=O)[O-] (stereo not drawn) [Carnitine, carnitine]
